Laboratory results as given in patent publication US20240167001A1, “THREE-DIMENSIONAL TUMOR MODEL OF GLIOBLASTOMA AND BRAIN METASTASIS, METHODS OF MANUFACTURING SAME AND USES THEREOF” (Ramot at Tel-Aviv University Ltd., priority 2021, published 2024).

Legend:
U-87MG-F cells [1] = experiment: Proliferation in fibrin 3D-bio-ink in the presence of SELPi (ImageJ, RLU); format: cell-based, human; settings: 0.5 M [sic] KF38789, fibrin 3D-bio-ink; p=4×10^−6
Procedure: (§1) PD-GB4 iRFP-labeled were casted into 96 glass bottom well plates (Cellvis, California, USA) in a core tumor at a density of 1×10^7 cells/ml and surrounded with 1×10^6 cells/ml un-labeled hAstro. Experiments were done in a medium mixture at 1:1:1 ratio of DMEM, astrocytes medium and microglia medium. For invasion estimation of dormant versus fast-growing cell types, mCherry-labeled U-87MG and T98-G human GB cells (2×10^6 cells/ml) were plated in a glass bottom 96-well plates in the core of fibrin 3D-bio-ink. The surrounding fibrin 3D-bio-ink was an empty, clear fibrin 3D-bio-ink. Experiments were done in a medium mixture at 1:1:1:1:1 ratio of DMEM, astrocytes medium, microglia medium, pericytes medium and Endo-Gro medium. Cell invasion was monitored for 2-5 weeks using EVOS FL Auto cell imaging system and quantified by ImageJ software, presented here as relative light units (RLU). Cells invasion was normalized by comparing the size of the cell core at day 1 (polygon drawing shape) up to day 14. 2 weeks. Each group contained 6-12 samples and the experiments were repeated in three independent times. For the evaluation of proliferation in the presence of P-selectin inhibitor (SELPi), mCherry-labeled U-87MG-F and T98G-F cells generating fast-growing tumors or iRFP-labeled PD-GB4 cells (4×10^6 cells/ml) were seeded in a glass bottom 96-well plate in the core of fibrin 3D-bio-ink. The surrounding fibrin 3D-bio-ink was an empty, clear fibrin 3D-bio-ink. Cells were then treated with […] KF38789 which is a selective inhibitor of P-selectin (SELPi) which were chosen to serve as a small molecule drug. […] P-selectin (SELP) functions as a cell adhesion molecule on the surfaces of cells which binds carbohydrates (18). It is also involved in tumor cell binding and promote their invasion by supporting a permissive metastatic microenvironment and SELP is highly expressed in GB (28). […] Proliferation was quantified during time with ImageJ software by RLU. […]

T98G-F cells [2] = experiment: as above; format: cell-based, human; settings: 0.5 M [sic] KF38789, fibrin 3D-bio-ink; p=0.00003
Procedure: as §1

PD-GB4 cells [3] = experiment: as above; format: cell-based, human; settings: 0.5 M [sic] KF38789, fibrin 3D-bio-ink; p=0.0001
Procedure: as §1

U-87MG-F cells [4] = experiment: 2D proliferation assay with SELPi (IncuCyte); format: cell-based, human; settings: 0.5 μM SELPi
Procedure: (§2) For growth curve evaluation, U-87MG and T98G human GB cells dormant and fast-growing tumor cells (29) (25,000 cells/well) were seeded onto 24-well plates in complete DMEM and incubated for 72 h (37° C.; 5% CO2). For the comparison of […] cell types growth curves in 2D culture, 10,000 cells/well were cultured in DMEM following a daily incubation with PrestoBlue® reagent for 4 h. For proliferation evaluation in the presence of SELPi, U-87MG and T98G human GB cells generating dormant and fast-growing tumors, or PD-GB4 cells (25,000 cells/well) were plated onto 24-well plate in complete DMEM and incubated for 24 h (37° C.; 5% CO2) to allow cell attachment. Cells were then treated with either 0.5 μM SELPi or with DMSO vehicle at corresponding % v/v of 0.2% v/v, prepared in medium mixture at 1:1:1:1:1 ratio of DMEM, astrocytes medium, microglia medium, pericytes medium and Endo-Gro medium, for 30 min. All wells were washed twice with PBS and incubated further with fresh medium mixture. Cell proliferation was monitored by IncuCyte® Zoom Live cell analysis system (Essen Bioscience), while the first images were taken right before the treatment. Each group was assayed in triplicates and the experiment was repeated in three independent times. Proliferation of cells was normalized to time 0 and presented as percent (%) of cell confluence.

T98G-F cells [5] = experiment: 2D proliferation assay with SELPi (IncuCyte); format: cell-based, human; settings: 0.5 μM SELPi
Procedure: as §2

PD-GB4 cells [6] = experiment: 2D proliferation assay with SELPi (IncuCyte); format: cell-based, human; settings: 0.5 μM SELPi
Procedure: as §2

P-selectin (SELP) = target: T1, P-selectin (SELP) (Homo sapiens, UniProt P16109); settings: lymphocytes; read-out: IC50 for inhibition of SELP binding in lymphocytes; cited from earlier work
T1 sequence (P16109 42-830): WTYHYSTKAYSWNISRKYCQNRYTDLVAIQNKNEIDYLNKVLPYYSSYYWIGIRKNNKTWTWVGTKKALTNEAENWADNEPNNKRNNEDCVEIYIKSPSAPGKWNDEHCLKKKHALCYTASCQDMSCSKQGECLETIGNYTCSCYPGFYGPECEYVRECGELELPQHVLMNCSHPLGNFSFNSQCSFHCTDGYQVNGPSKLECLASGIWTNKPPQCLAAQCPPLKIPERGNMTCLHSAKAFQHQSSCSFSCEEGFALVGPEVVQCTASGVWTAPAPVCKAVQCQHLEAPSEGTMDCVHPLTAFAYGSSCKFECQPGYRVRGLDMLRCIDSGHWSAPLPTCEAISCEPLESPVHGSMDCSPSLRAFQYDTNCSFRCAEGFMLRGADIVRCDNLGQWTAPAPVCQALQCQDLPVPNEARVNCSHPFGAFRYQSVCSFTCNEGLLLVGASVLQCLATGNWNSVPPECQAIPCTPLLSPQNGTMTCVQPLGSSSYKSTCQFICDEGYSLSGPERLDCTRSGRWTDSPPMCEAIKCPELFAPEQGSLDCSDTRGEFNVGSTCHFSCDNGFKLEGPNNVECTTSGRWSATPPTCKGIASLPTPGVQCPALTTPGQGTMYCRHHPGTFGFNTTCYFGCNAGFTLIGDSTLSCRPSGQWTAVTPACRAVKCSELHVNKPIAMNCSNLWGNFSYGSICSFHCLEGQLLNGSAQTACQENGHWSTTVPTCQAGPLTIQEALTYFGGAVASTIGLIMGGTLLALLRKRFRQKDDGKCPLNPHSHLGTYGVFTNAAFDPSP

patient-derived GB cells = experiment: TMZ resistance evaluation, patient-derived GB cells in 2D culture; format: cell-based; settings: Homo sapiens, 72 h, 3 patient-derived GB cells, 3 days, all three cell types, read-out: IC50 of TMZ, patient-derived cells grown in 2D culture
Procedure: The resistance of patient-derived cells to TMZ (LIXIN, China) was assessed in fibrin 3D-bio-ink and in 2D culture. Patient-derived cells were seeded in fibrin 3D-bio-ink at 1×10^7 cells/ml density to match resemble a very dens GB tissue, in different TMZ concentrations (2000 μM -0.01 μM) for 7 days. For the 2D culture TMZ resistance evaluation 20,000-40,000 cells/well were seeded in 24 well plate in fresh DMEM. We replaced the media to media with different TMZ concentrations (10 μM -0.01 μM) for 3 days. Then, the 3D-bio-ink samples were placed in 500 μl PrestoBlue in 24 well plate and incubated at 37° C. for 3 h.

Row | IC50 (patient-derived GB cells) | Compound | Inhibition of U-87MG fast-growing cells in fibrin 3D-bio-ink (U-87MG-F cells [1]) | Inhibition of T98G fast-growing cells in fibrin 3D-bio-ink (T98G-F cells [2]) | Inhibition of PD-GB4 cell proliferation in fibrin 3D-bio-ink (PD-GB4 cells [3]) | Effect on U-87MG-F cells in 2D culture (U-87MG-F cells [4]) | Effect on T98G-F cells in 2D culture (T98G-F cells [5]) | Effect on proliferation of PD-GB4 in 2D culture (PD-GB4 cells [6]) | IC50 (P-selectin (SELP))
1 |  | COc1ccc(C2CC(c3c(O)cc(C)oc3=O)=NCCS2)c(OC)c1 (centres unmarked) [SELPi, KF38789] | significant inhibition | significant inhibition | significant inhibition | did not affect | did not affect | did not affect | 2000 nM
2 | ~4 nM | Cn1nnc2c(C(N)=O)ncn2c1=O [TMZ, Temozolomide] |  |  |  |  |  |  | 
